The assay addresses T1, mouse TRPM3a2 (mTRPM3) ion channel (Mus musculus, UniProt J9SQF3).
T1 construct: expressed in transfected cells; host or cells: flip-in HEK293
In words: TRPM3 ion channel driven Ca2+ uptake, Fluo-4 AM assay (PS-stimulated, overexpressing flip-in HEK293 cells). It is filed as cell-based. The note with it: PS (50 μM) stimulated. On the procedure: In order to monitor the inhibition of the mouse TRPM3a2 (mTRPM3) ion channel by the compounds of the invention, a cellular system making use of an mTRPM3alpha2 or hTRPM3 overexpressing cell line (flip-in HEK293) was used. The TRPM3 channel was stimulated/opened with Pregnenolone sulfate (PS) (50 μM) which results in Ca^2+ influx.
For mTRPM3, the intracellular Ca^2+ was measured with a Calcium responsive dye, Fluor-4 AM ester (Invitrogen). Cells were cultured until a confluence of 80-90%, washed with Versene (Invitrogen) and detached from the surface by a short incubation with 0.05% Trypsin (Invitrogen). The trypsination process was stopped by the addition of complete cell culture medium (DMEM, glutamax, 10% FCS, NEAA, Pen-Strep). Cells were collected and resuspended in Krebs buffer without Calcium at RT.
Prior the cell seeding (±2000 cells/well into a black, 384 well plate (Greiner)) the diluted compound was added in the assay plate, together with the PS dissolved in Krebs buffer containing Calcium. […] Directly after cell addition the plates were read on an Envision fluorescence reader (Perkin Elmer) by an Excitation of 485 nm and emission at 535 nm.
Channel inhibition was calculated compared to a non-PS stimulated control versus a condition stimulated with PS (50 μM) with vehicle. The ability of the compounds of the invention to inhibit this activity was determined as: Percentage inhibition=[1-((RFU determined for sample with test compound present—RFU determined for sample with positive control inhibitor) divided by (RFU determined in the presence of vehicle—RFU determined for sample with positive control inhibitor))]*100.

T1 sequence (J9SQF3 1-1709 isoform J9SQF3-12): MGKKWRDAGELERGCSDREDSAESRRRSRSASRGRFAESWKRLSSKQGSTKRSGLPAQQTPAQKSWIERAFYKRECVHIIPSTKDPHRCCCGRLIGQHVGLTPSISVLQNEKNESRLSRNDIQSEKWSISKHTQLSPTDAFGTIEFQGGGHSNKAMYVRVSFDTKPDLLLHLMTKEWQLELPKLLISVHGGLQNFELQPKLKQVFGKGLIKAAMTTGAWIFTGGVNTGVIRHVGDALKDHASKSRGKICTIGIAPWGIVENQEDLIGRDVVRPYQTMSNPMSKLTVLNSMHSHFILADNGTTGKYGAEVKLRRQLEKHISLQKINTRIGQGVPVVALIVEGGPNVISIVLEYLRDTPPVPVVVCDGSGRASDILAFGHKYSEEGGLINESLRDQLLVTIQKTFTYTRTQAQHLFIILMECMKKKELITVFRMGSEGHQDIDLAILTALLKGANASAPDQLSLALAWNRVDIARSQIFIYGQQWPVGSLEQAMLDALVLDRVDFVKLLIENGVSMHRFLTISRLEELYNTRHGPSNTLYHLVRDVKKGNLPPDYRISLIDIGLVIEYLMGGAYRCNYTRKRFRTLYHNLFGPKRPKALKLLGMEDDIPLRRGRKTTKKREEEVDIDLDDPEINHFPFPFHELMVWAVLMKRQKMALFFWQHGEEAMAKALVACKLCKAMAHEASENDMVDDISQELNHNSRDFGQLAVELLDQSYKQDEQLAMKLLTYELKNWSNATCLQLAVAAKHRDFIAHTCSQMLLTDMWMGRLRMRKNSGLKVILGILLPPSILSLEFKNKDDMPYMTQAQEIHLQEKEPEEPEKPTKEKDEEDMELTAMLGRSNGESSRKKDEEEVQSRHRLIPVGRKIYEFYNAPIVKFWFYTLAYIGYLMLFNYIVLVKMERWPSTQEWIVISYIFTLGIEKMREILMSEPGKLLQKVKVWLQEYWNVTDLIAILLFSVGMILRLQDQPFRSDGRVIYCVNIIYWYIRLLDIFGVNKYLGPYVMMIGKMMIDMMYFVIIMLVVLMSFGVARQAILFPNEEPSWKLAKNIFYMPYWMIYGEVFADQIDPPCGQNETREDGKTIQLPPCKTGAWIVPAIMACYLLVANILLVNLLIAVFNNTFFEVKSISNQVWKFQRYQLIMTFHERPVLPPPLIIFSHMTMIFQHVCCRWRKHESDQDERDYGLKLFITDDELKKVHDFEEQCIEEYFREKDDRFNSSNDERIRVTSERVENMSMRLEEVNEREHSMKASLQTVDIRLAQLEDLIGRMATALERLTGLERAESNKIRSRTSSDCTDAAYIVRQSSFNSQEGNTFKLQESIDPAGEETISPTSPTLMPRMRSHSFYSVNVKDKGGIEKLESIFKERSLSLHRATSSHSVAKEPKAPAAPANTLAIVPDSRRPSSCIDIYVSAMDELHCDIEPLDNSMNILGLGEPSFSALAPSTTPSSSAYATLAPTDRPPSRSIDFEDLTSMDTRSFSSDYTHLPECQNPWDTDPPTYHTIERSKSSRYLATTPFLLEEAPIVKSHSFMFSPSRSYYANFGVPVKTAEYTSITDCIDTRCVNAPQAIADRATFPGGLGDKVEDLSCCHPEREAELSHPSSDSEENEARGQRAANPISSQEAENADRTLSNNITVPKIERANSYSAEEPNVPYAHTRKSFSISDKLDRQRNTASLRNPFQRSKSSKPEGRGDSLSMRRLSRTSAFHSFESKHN

What is called IC50 is the concentration that inhibits the measured activity by half. Under “cpds. 400-499”, `COc1ncccc1COc1ccc2oc(C)c(C(=O)NC3CCN(CCO)C3=O)c2c1` (single isomer, unassigned) [409 - En 1] yielded a 50% inhibitory concentration (IC50) of no more than 1 µM. For the molecule `Cc1ncsc1COc1ccc2oc(C)c(C(=O)NC3(C)CCN(CCO)C3=O)c2c1` (single isomer, unassigned) [410 - En 1], the IC50 (cpds. 400-499) is no more than 1 µM.

In the case of `Cc1ncsc1COc1ccc2oc(C)c(C(=O)NC3(C)CCN(CCO)C3=O)c2c1` (single isomer, unassigned) [410 - En 2], the concentration for half-maximal inhibition (IC50) (cpds. 400-499) lay within 1 to 20 µM.

`Cc1ncsc1COc1ccc2oc(C)c(C(=O)NC(CO)C(=O)N(C)C)c2c1` (single isomer, unassigned) [411 - En 1] showed an IC50 (cpds. 400-499) of no more than 1 µM. Turning to `Cc1ncc(COc2ccc3oc(C)c(C(=O)NC(CO)CN(C)C)c3c2)s1` (single isomer, unassigned) [412 - En 1], the IC50 (cpds. 400-499) was no more than 1 µM.

In the case of `Cc1oc2ccc(OCc3ccnn3C)cc2c1C(=O)NC(C)C(N)=O` (single isomer, unassigned) [433 - En 1], the IC50 (cpds. 400-499) was no more than 1 µM.

For the setting “cpds. 400-499”, `Cc1oc2ccc(OCc3cccnc3O)cc2c1C(=O)NC(C)C(N)=O` (single isomer, unassigned) [436 - En 1] returned a 50% inhibitory concentration (IC50) of no more than 1 µM. On the same count and under the same terms, with `COc1ncccc1COc1ccc2oc(C)c(C(=O)NC(C)C(N)=O)c2c1` (single isomer, unassigned) [437 - En 1] the figure was no more than 1 µM; with `Cc1ncc(COc2ccc3oc(C)c(C(=O)NC(CN(C)C4CC4)C(N)=O)c3c2)s1` (single isomer, unassigned) [445 - En 1], no more than 1 µM; with `Cc1ncc(COc2ccc3oc(C)c(C(=O)NC(CN(C)C4CC4)C(N)=O)c3c2)s1` (single isomer, unassigned) [445 - En 2], 1 to 20 µM. Still for that read-out and setting: with `Cc1ncsc1COc1ccc2oc(C)c(C(=O)NC(CN(C)C3CC3)C(N)=O)c2c1` (single isomer, unassigned) [446 - En 1] the figure was no more than 1 µM; with `Cc1ncsc1COc1ccc2oc(C)c(C(=O)NC(CN(C)C3CC3)C(N)=O)c2c1` (single isomer, unassigned) [446 - En 2], 1 to 20 µM. Still for that read-out and setting: under `Cc1ncc(COc2ccc3oc(C)c(C(=O)NC(CN(C)C)C(N)=O)c3c2)s1` (single isomer, unassigned) [449 - En 1] stands no more than 1 µM; under `Cc1ncsc1COc1ccc2oc(C)c(C(=O)NC(CN(C)C)C(N)=O)c2c1` (single isomer, unassigned) [450 - En 1], no more than 1 µM. On to `Cc1oc2ccc(OCc3nccn3C)cc2c1C(=O)NC(CO)C(N)=O` (single isomer, unassigned) [451 - En 1], for which the IC50 (cpds. 400-499) is no more than 1 µM. Still for that read-out and setting: under `Cc1oc2ccc(OCc3nccn3C)cc2c1C(=O)NC(CO)C(N)=O` (single isomer, unassigned) [451 - En 2] stands 1 to 20 µM; under `Cc1oc2ccc(OCc3ccnn3C)cc2c1C(=O)NC(CO)C(N)=O` (single isomer, unassigned) [452 - En 1], no more than 1 µM. Regarding `Cc1oc2ccc(OCc3ccnn3CC(F)F)cc2c1C(=O)NC(CO)C(N)=O` (single isomer, unassigned) [456 - En 1], under “cpds. 400-499”, the 50% inhibitory concentration (IC50) was no more than 1 µM. Still for that read-out and setting: under `Cc1oc2ccc(OCc3cccnc3C(F)F)cc2c1C(=O)NC(CO)C(N)=O` (single isomer, unassigned) [457 - En 1] stands no more than 1 µM; under `Cc1nc(C)c(COc2ccc3oc(C)c(C(=O)NC(CO)C(N)=O)c3c2)s1` (single isomer, unassigned) [458 - En 1], no more than 1 µM; under `Cc1oc2ccc(OCc3cccnc3O)cc2c1C(=O)NC(CO)C(N)=O` (single isomer, unassigned) [459 - En 1], no more than 1 µM.

Molecule `Cc1ncccc1COc1ccc2oc(C)c(C(=O)NC(C)(CO)C(N)=O)c2c1` (single isomer, unassigned) [461 - En 1] had an IC50 (cpds. 400-499) of no more than 1 µM. Under “cpds. 400-499”, `Cc1ncc(COc2ccc3oc(C)c(C(=O)NC(C)(CO)C(N)=O)c3c2)s1` (single isomer, unassigned) [462 - En 1] returned a concentration for half-maximal inhibition (IC50) of no more than 1 µM.

`Cc1ncsc1COc1ccc2oc(C)c(C(=O)NC(C)(CO)C(N)=O)c2c1` (single isomer, unassigned) [463 - En 2] came in with an IC50 (cpds. 400-499) of no more than 1 µM. Molecule `Cc1ccc(COc2ccc3oc(C)c(C(=O)NC(C)(CO)C(N)=O)c3c2)cn1` (single isomer, unassigned) [464 - En 1] yielded an IC50 (cpds. 400-499) of no more than 1 µM. Under “cpds. 400-499”, `COCC(NC(=O)c1c(C)oc2ccc(OCc3scnc3C)cc12)C(N)=O` (single isomer, unassigned) [467 - En 1] had an IC50 of no more than 1 µM.

Take `COCC(C)(NC(=O)c1c(C)oc2ccc(OCc3scnc3C)cc12)C(N)=O` (single isomer, unassigned) [468 - En 1]: the IC50 (cpds. 400-499) is no more than 1 µM. The same measure, in the same setting: under `Cc1ncc(COc2ccc3oc(C)c(C(=O)NC(CO)CN4CCOCC4)c3c2)s1` (single isomer, unassigned) [487 - En 1] stands 1 to 20 µM; under `Cc1ncsc1COc1ccc2oc(C)c(C(=O)NC(CO)CN3CCOCC3)c2c1` (single isomer, unassigned) [488 - En 1], no more than 1 µM. `Cc1ncsc1COc1ccc2oc(C)c(C(=O)NC(CO)CN3CCOCC3)c2c1` (single isomer, unassigned) [488 - En 2] returned a concentration for half-maximal inhibition (IC50) (cpds. 400-499) of 1 to 20 µM. Molecule `Cc1oc2ccc(OCc3cccnc3C(F)(F)F)cc2c1C(=O)NC1(CO)CCCNC1=O` (single isomer, unassigned) [510 - En 1] showed a concentration for half-maximal inhibition (IC50) (cpds. 500-599) of no more than 1 µM.

With `Cc1ncc(COc2ccc3oc(C)c(C(=O)NC4(CO)CCCNC4=O)c3c2)o1` (single isomer, unassigned) [511 - En 1], the IC50 (cpds. 500-599) was no more than 1 µM.

`Cc1ncc(COc2ccc3oc(C)c(C(=O)NC4(CO)CCCNC4=O)c3c2)o1` (single isomer, unassigned) [511 - En 2] had a 50% inhibitory concentration (IC50) (cpds. 500-599) of 1 to 20 µM. Regarding `Cc1ncccc1COc1ccc2oc(C)c(C(=O)NC3(CO)CCCNC3=O)c2c1` (single isomer, unassigned) [512 - En 1], the IC50 (cpds. 500-599) is no more than 1 µM.

On to `Cc1ncsc1COc1ccc2oc(C)c(C(=O)NC3(CO)CCCNC3=O)c2c1` (single isomer, unassigned) [513 - En 1], for which, for the setting “cpds. 500-599”, the IC50 was no more than 1 µM. Take `Cc1ccc(COc2ccc3oc(C)c(C(=O)NC4(CO)CCCNC4=O)c3c2)cn1` (single isomer, unassigned) [514 - En 1]: the IC50 (cpds. 500-599) is no more than 1 µM. On the same count and under the same terms, under `Cc1ncccc1COc1ccc2oc(C)c(C(=O)NC3(CO)CCNC3=O)c2c1` (single isomer, unassigned) [516 - En 1] stands no more than 1 µM; under `Cc1ncsc1COc1ccc2oc(C)c(C(=O)NC3(CO)CCNC3=O)c2c1` (single isomer, unassigned) [518 - En 1], no more than 1 µM.

For the setting “cpds. 500-599”, `Cc1ccc(COc2ccc3oc(C)c(C(=O)NC4(CO)CCNC4=O)c3c2)cn1` (single isomer, unassigned) [519 - En 1] yielded an IC50 of no more than 1 µM. Same read-out and setting: with `Cc1oc2ccc(OCc3ccccn3)cc2c1C(=O)NC1(CO)CCNC1=O` (single isomer, unassigned) [520 - En 1] the figure was no more than 1 µM; with `Cc1oc2ccc(OCc3ccccn3)cc2c1C(=O)NC1(CO)CCNC1=O` (single isomer, unassigned) [520 - En 2], no more than 1 µM.

For the molecule `Cc1oc2ccc(OCc3cccnc3O)cc2c1C(=O)NC1(CO)CCNC1=O` (single isomer, unassigned) [521 - En 1], for the setting “cpds. 500-599”, the concentration for half-maximal inhibition (IC50) was no more than 1 µM. Still for that read-out and setting: under `Cc1oc2ccc(OCc3cccnc3O)cc2c1C(=O)NC1(CO)CCNC1=O` (single isomer, unassigned) [521 - En 2] stands 1 to 20 µM; under `COc1ncccc1COc1ccc2oc(C)c(C(=O)NC3(CO)CCNC3=O)c2c1` (single isomer, unassigned) [522 - En 1], no more than 1 µM. With `Cc1oc2ccc(OCc3cccn(C)c3=O)cc2c1C(=O)NC1CCNCC1(F)F` (single isomer, unassigned) [544 - En 1], for the setting “cpds. 500-599”, the IC50 is 1 to 20 µM. With `Cc1oc2ccc(OCc3cccc(O)n3)cc2c1C(=O)NC1CCNCC1(F)F` (single isomer, unassigned) [569 - En 1, N-(3,3-difluoropiperidin-4-yl)-2-methyl-5-((6-oxo-1,6-dihydropyridin-2-yl)methoxy)benzofuran-3-carboxamide], the IC50 (cpds. 500-599) was in the range of 1 to 20 µM.

Where the note is “cpds. 500-599”, `Cc1oc2ccc(OCc3cccc(O)n3)cc2c1C(=O)NC1CCNCC1(F)F` (single isomer, unassigned) [569 - En 2, N-(3,3-difluoropiperidin-4-yl)-2-methyl-5-((6-oxo-1,6-dihydropyridin-2-yl)methoxy)benzofuran-3-carboxamide] yielded an IC50 of no less than 20 µM. On the same count and under the same terms, with `Cc1ncc(COc2ccc3oc(C)c(C(=O)NC4(C(N)=O)CCCOC4)c3c2)s1` (single isomer, unassigned) [590 - En 1] the figure was no more than 1 µM; with `Cc1ncccc1COc1ccc2oc(C)c(C(=O)NC3(C(N)=O)CCOC3)c2c1` (single isomer, unassigned) [591 - En 1], no more than 1 µM. Still for that read-out and setting: with `Cc1ncccc1COc1ccc2oc(C)c(C(=O)NC3(C(N)=O)CCOC3)c2c1` (single isomer, unassigned) [591 - En 2] the figure was no more than 1 µM.
